Assay results taken from PubChem BioAssay (NCI).
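A five-concentration, 48-hour dose response in 96-well plates underlies each endpoint, interpolated linearly between surrounding concentrations. Here, GI50 denotes the concentration required for 50% inhibition of growth. TGI: concentration producing complete growth inhibition.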

Assays:
Assay in all cases: growth of human tumour cells (NCI), 48 h
HL-60(TB) leukemia = test system: HL-60(TB) leukemia
HOP-92 NSCLC = test system: HOP-92 NSCLC
IGROV1 ovarian = test system: IGROV1 ovarian
K-562 leukemia = test system: K-562 leukemia
LOX IMVI melanoma = test system: LOX IMVI melanoma
MOLT-4 leukemia = test system: MOLT-4 leukemia
RPMI-8226 leukemia = test system: RPMI-8226 leukemia
SF-539 CNS = test system: SF-539 CNS
SK-OV-3 ovarian = test system: SK-OV-3 ovarian
PC-3 prostate = test system: PC-3 prostate

| Compound | TGI (HL-60(TB) leukemia) | TGI (HOP-92 NSCLC) | TGI (IGROV1 ovarian) | TGI (K-562 leukemia) | TGI (LOX IMVI melanoma) | TGI (MOLT-4 leukemia) | TGI (RPMI-8226 leukemia) | TGI (SF-539 CNS) | TGI (SK-OV-3 ovarian) | GI50 (HOP-92 NSCLC) | GI50 (LOX IMVI melanoma) | GI50 (RPMI-8226 leukemia) | GI50 (SF-539 CNS) | GI50 (SK-OV-3 ovarian) | GI50 (HL-60(TB) leukemia) | GI50 (IGROV1 ovarian) | GI50 (K-562 leukemia) | GI50 (MOLT-4 leukemia) | GI50 (PC-3 prostate) | TGI (PC-3 prostate) |
| --- | --- | --- | --- | --- | --- | --- | --- | --- | --- | --- | --- | --- | --- | --- | --- | --- | --- | --- | --- | --- |
| COc1cc2c3c(c1OC)C(=O)C=C3N(S(=O)(=O)c1ccc(C)cc1)CC2 | > 100 µM | > 100 µM | > 100 µM | > 100 µM | > 100 µM | > 100 µM | > 100 µM | > 100 µM | > 100 µM |  |  |  |  |  |  |  |  |  |  |  |
| CCCCCCCCCCOC(=O)c1cc[n+](C)cc1 | 35.4 µM | 29.2 µM | 30.4 µM | 34.2 µM | 32.6 µM | 37.5 µM | 38.2 µM | 29.8 µM | 29.6 µM |  |  |  |  |  |  |  |  |  |  |  |
| O=C(NC(=O)c1cn(CCN2CCN(C(=O)NCCCCCCNC(=O)N3CCN(CCn4cc(C(=O)NC(=O)OCc5ccccc5)c(=O)[nH]c4=O)CC3)CC2)c(=O)[nH]c1=O)OCc1ccccc1 | > 100 µM | > 100 µM | > 100 µM | > 100 µM | > 100 µM | > 100 µM | > 100 µM | > 100 µM | > 100 µM |  |  |  |  |  |  |  |  |  |  |  |
| CCN(CC)c1ccc2nc3ccc(N=Nc4ccc(O)cc4)cc3[n+](-c3ccccc3)c2c1 |  | > 100 µM |  |  | 17.3 µM |  | > 100 µM | 91.2 µM | > 100 µM | > 100 µM | 2.85 µM | 3.85 µM | 13.3 µM | 35.7 µM |  |  |  |  |  |  |
| CCCCN1C(=O)/C(=c2\sc3n(c2=O)C2C(NN=3)N(CC)C(=O)N2CC)c2ccccc21 (stereo not drawn) | 3.46 µM | 4.58 µM | 3.6 µM | > 100 µM |  | > 100 µM |  | 1.46 µM | 5.89 µM | 1.07 µM |  |  | 0.371 µM | 0.911 µM | 1.05 µM | 0.764 µM | 0.542 µM | 2.73 µM |  |  |
| CC1=C(C#N)C(/C=C(\Cl)c2ccc(F)cc2)C(C#N)=C(C)N1 | > 100 µM |  | > 100 µM | > 100 µM | > 100 µM | > 100 µM | > 100 µM | > 100 µM | > 100 µM |  | > 100 µM | 36.3 µM | > 100 µM | > 100 µM | 74 µM | > 100 µM | > 100 µM | > 100 µM | > 100 µM | > 100 µM |
| CC1(C)C(=O)C(=Cc2ccco2)C1=O | > 100 µM | > 100 µM | > 100 µM | > 100 µM | > 100 µM | > 100 µM | > 100 µM | > 100 µM | > 100 µM |  |  |  |  |  |  |  |  |  |  |  |
| Cc1ccccc1N=Nc1c(-c2ccccc2)nn(C(=O)CC(=O)Nc2cccc(Cl)c2)c1-c1ccccc1 | 24.5 µM | > 100 µM | > 31.6 µM | > 31.6 µM | 25.3 µM | 22.7 µM | 21.2 µM | > 31.6 µM | > 31.6 µM |  |  |  |  |  |  |  |  |  |  |  |
| COc1ccc2c(c1)CCc1c(CO)c(COC(=O)NC(C)C)n(C)c1-2 | 5.23 µM | 22.5 µM | 48.3 µM | 10.5 µM | 25.4 µM | 8.57 µM | 7.05 µM | > 87 µM | 73.3 µM |  |  |  |  |  |  |  |  |  |  |  |
| COC(=O)N/N=C(\C)C(CN(C)C)C(c1ccccc1)c1c(O)c2ccccc2oc1=O (stereo not drawn) | > 100 µM | > 100 µM | > 100 µM | > 100 µM | > 100 µM | > 100 µM | > 100 µM | > 100 µM | > 100 µM |  |  |  |  |  |  |  |  |  |  |  |
| COC(=O)/C(=C/c1ccc(OC)cc1)C(C(=O)O)=C1CCCCC1 | > 100 µM | > 100 µM | > 100 µM | > 100 µM | > 100 µM | > 100 µM | > 100 µM | > 100 µM | > 100 µM |  |  |  |  |  |  |  |  |  |  |  |
| COc1ccc2c(c1)[n+](=O)c(C(=O)CC(=O)C(=O)Nc1cccc(C)c1C)c(C)n2[O-] | > 100 µM | > 100 µM | > 100 µM | > 100 µM | > 100 µM | > 100 µM | > 100 µM | > 100 µM | > 100 µM |  |  |  |  |  |  |  |  |  |  |  |
| CC(=O)OC1C(O[C@H]2CC[C@]34O[C@]35CC[C@]3(C)C(C6(C)CC[C@@H](C(C)(C)O)O6)[C@@H](O)CC3(C)[C@@H]5CC(OC3OC(CO)C(O)C(O)C3O)C4C2(C)C)OCC(O)C1O (stereo partly drawn) | > 53.3 µM | > 100 µM | > 100 µM | > 74.8 µM | > 59.3 µM | > 100 µM | > 71.3 µM | > 56.6 µM | > 100 µM |  |  |  |  |  |  |  |  |  |  |  |
| COc1cccc2nc3c(C(=O)NCCN(C)C)cccc3nc12 | 17.5 µM | 28.8 µM | > 72.9 µM | 25.2 µM | 14.1 µM | 15.1 µM | > 63.8 µM | 17.1 µM | > 46.4 µM |  |  |  |  |  |  |  |  |  |  |  |
| C=C(CO)CC(/C=C(\C)CC/C=C(\C)CCl)OC(C)=O (stereo not drawn) | > 100 µM | > 100 µM | > 100 µM | > 100 µM | > 100 µM | > 100 µM | > 100 µM | > 100 µM | > 100 µM |  |  |  |  |  |  |  |  |  |  |  |
| O=c1[nH]c(=O)n(C2CC(O)C(CO)O2)cc1COCC(F)(F)F (stereo not drawn) | > 100 µM | > 100 µM | > 100 µM | > 100 µM | > 100 µM | > 100 µM | > 100 µM | > 100 µM | > 100 µM |  |  |  |  |  |  |  |  |  |  |  |
| O=C([CH-]C(=O)c1ccccc1)c1ccccc1.O=C([CH-]C(=O)c1ccccc1)c1ccccc1.O=C([CH-]C(=O)c1ccccc1)c1ccccc1.[Cl-].[Zr+4] |  | 36 µM | > 100 µM | 25.5 µM | > 100 µM | > 100 µM | > 100 µM |  | 74.5 µM | 8.09 µM | 26.7 µM | 16.6 µM |  | 37.8 µM |  | 34.3 µM | 8.02 µM | 9.75 µM |  |  |
| CCC[CH2][Sn]([CH2]CCC)([O]C(=O)c1cccc(F)c1F)[O]C(=O)c1cccc(F)c1F | 2.4 µM | 2.57 µM | 2.76 µM | 1.08 µM | 1.74 µM | 2.04 µM |  | 2.56 µM | 4.49 µM | 1.3 µM | 0.519 µM |  | 1.27 µM | 2.41 µM | 0.42 µM | 1.4 µM | 0.207 µM | 0.336 µM |  |  |
| COc1cc2nc(-c3cccc4cccnc34)nc(NC3CCN(Cc4ccccc4)CC3)c2cc1OC |  | 3.36 µM | 2.31 µM |  |  | 1.81 µM | 4.54 µM | 2.92 µM | 3.22 µM | 1.59 µM |  | 1.6 µM | 1.4 µM | 1.56 µM |  | 0.93 µM |  | 0.325 µM | 1.36 µM | 2.83 µM |
